Article PMC5379747, “Structural basis for a novel type of cytokinin-activating protein” (Scientific Reports, 2017)
Each block holds one compound with its values, some of them ahead of it.

How the values were obtained:
Tt1465 (TtLOGII) = biological target: T1, Tt1465 (TtLOGII) (Thermus thermophilus, UniProt Q5SHT6); test: TLC detection of adenine released from AMP; assay type: biochemical; conditions: 20 mM AMP, 36 mM Tris-HCl pH 8.0, 23 μM enzyme, 65 °C
T1 construct: gene TTHA1644; recombinant, prepared similarly to CgLOGII; hexamer
T1 sequence (Q5SHT6 1-217): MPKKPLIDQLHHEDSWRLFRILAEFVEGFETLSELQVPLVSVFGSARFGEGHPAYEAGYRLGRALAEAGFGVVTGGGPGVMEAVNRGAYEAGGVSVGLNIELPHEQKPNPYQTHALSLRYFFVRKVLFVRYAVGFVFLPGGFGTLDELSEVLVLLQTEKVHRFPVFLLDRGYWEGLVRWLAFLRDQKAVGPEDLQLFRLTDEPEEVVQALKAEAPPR

Cg1261ΔDNR (CgLOGIIΔDNR) = biological target: T2, Cg1261ΔDNR (CgLOGIIΔDNR) (Corynebacterium glutamicum, UniProt Q8NRE2); test: TLC detection of adenine released from AMP; assay type: biochemical; conditions: 20 mM AMP, 36 mM Tris-HCl pH 8.0, 23 μM enzyme, 30 °C
T2 construct: gene Cgl1110; E. coli expressed, hexamer

[1] = biological target: T3, Cg1261 (CgLOGII, CgLOGIIF) (Corynebacterium glutamicum, UniProt Q8NRE2, F152A); test: TLC detection of adenine released from AMP; assay type: biochemical; conditions: 20 mM AMP, 36 mM Tris-HCl pH 8.0, 23 μM enzyme, 6 h
T3 construct: gene Cgl1110; full length, pET30a with C-terminal 6xHis, E. coli BL21(DE3), hexamer; residues 1-39 disordered in crystal

[2] = biological target: T4, Cg1261 (CgLOGII, CgLOGIIF) (Corynebacterium glutamicum, UniProt Q8NRE2, M185A); test: TLC detection of adenine released from AMP; assay type: biochemical; conditions: 20 mM AMP, 36 mM Tris-HCl pH 8.0, 23 μM enzyme, 6 h
T4 construct: gene Cgl1110; full length, pET30a with C-terminal 6xHis, E. coli BL21(DE3), hexamer; residues 1-39 disordered in crystal

[3] = biological target: T5, Cg1261 (CgLOGII, CgLOGIIF) (Corynebacterium glutamicum, UniProt Q8NRE2); test: TLC detection of adenine released from AMP; assay type: biochemical; conditions: 20 mM AMP, 36 mM Tris-HCl pH 8.0, 23 μM enzyme, 30 °C
T5 construct: gene Cgl1110; full length, pET30a with C-terminal 6xHis, E. coli BL21(DE3), hexamer; residues 1-39 disordered in crystal
T5 sequence (Q8NRE2 1-256): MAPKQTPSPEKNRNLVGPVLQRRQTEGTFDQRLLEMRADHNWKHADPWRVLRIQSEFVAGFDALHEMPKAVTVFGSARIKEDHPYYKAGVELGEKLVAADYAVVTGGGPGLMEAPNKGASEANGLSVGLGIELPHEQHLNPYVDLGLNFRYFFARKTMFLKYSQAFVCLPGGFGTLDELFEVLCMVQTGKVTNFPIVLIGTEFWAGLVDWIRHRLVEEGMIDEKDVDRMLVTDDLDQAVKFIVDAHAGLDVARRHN

[4] = biological target: T6, Cg1261 (CgLOGII, CgLOGIIF) (Corynebacterium glutamicum, UniProt Q8NRE2, F153A); test: TLC detection of adenine released from AMP; assay type: biochemical; conditions: 20 mM AMP, 36 mM Tris-HCl pH 8.0, 23 μM enzyme, 6 h
T6 construct: gene Cgl1110; full length, pET30a with C-terminal 6xHis, E. coli BL21(DE3), hexamer; residues 1-39 disordered in crystal

[5] = biological target: T7, Cg1261 (CgLOGII, CgLOGIIF) (Corynebacterium glutamicum, UniProt Q8NRE2, D177A); test: TLC detection of adenine released from AMP; assay type: biochemical; conditions: 20 mM AMP, 36 mM Tris-HCl pH 8.0, 23 μM enzyme, 6 h
T7 construct: gene Cgl1110; full length, pET30a with C-terminal 6xHis, E. coli BL21(DE3), hexamer; residues 1-39 disordered in crystal

[6] = biological target: Cg1261 (CgLOGII), full-length, from Corynebacterium glutamicum ATCC 13032 (Corynebacterium glutamicum ATCC 13032); test: SAXS; in solution, 4 °C, 0.5 ~4.5 mg/mL; molecular mass by the QR method
[7] = biological target: Cg1261 (CgLOGII), full-length, from Corynebacterium glutamicum ATCC 13032 (Corynebacterium glutamicum ATCC 13032); test: SEC; analytical, Superdex 200 10/300, 150 mM NaCl, 1 mL of 3 mg/ml; masses from a calibration curve of standards
[8] = biological target: Cg1261 (CgLOGII), full-length, from Corynebacterium glutamicum ATCC 13032 (Corynebacterium glutamicum ATCC 13032); test: crystal structure; CgLOGII crystals, space group C222_(1), three molecules in the asymmetric unit; hexamer generated by crystallographic symmetry; 1.95 Å
[9] = biological target: Cg1261 DNR-truncated (Cg1261ΔDNR) (Corynebacterium glutamicum ATCC 13032); test: SAXS; in solution, 4 °C, 0.5 ~4.5 mg/mL; molecular mass by the QR method
[10] = biological target: Cg1261 DNR-truncated (Cg1261ΔDNR) (Corynebacterium glutamicum ATCC 13032); test: SEC; analytical, Superdex 200 10/300, 150 mM NaCl, 1 mL of 3 mg/ml; masses from a calibration curve of standards
[11] = biological target: CgLOG (Cg2612) from Corynebacterium glutamicum (Corynebacterium glutamicum); test: as above

T3 sequence (Q8NRE2 entry or part of it F152A): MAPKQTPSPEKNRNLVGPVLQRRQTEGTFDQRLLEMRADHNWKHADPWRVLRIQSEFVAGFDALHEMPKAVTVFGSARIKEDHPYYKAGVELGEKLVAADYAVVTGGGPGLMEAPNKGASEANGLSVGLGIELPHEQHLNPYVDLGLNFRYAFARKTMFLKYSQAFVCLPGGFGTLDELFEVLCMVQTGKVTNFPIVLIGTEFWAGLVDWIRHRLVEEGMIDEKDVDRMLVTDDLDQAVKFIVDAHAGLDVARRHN
T7 sequence (Q8NRE2 entry or part of it D177A): as the sequence (Q8NRE2 entry or part of it F152A) above, with A152F, D177A counted along it
T6 sequence (Q8NRE2 entry or part of it F153A): as the sequence (Q8NRE2 entry or part of it F152A) above, with A152F, F153A counted along it
T4 sequence (Q8NRE2 entry or part of it M185A): as the sequence (Q8NRE2 entry or part of it F152A) above, with A152F, M185A counted along it

Compound: Nc1ncnc2c1ncn2[C@@H]1O[C@H](COP(=O)(O)O)[C@@H](O)[C@H]1O [AMP]
TLC detection of adenine released from AMP (Tt1465 (TtLOGII)): Tt1465 hydrolyzed AMP into an adenine base and ribose 5-phosphate
TLC detection of adenine released from AMP (Cg1261ΔDNR (CgLOGIIΔDNR)): Cg1261ΔDNR showed the same level of phosphoribohydrolase activity as Cg1261
TLC detection of adenine released from AMP [1]: such as Phe152, Phe153, and Met185, substituted with alanine still showed the activity
TLC detection of adenine released from AMP [2]: such as Phe152, Phe153, and Met185, substituted with alanine still showed the activity
TLC detection of adenine released from AMP [3]: hydrolyzed AMP into an adenine base and ribose 5-phosphate
TLC detection of adenine released from AMP [4]: such as Phe152, Phe153, and Met185, substituted with alanine still showed the activity
TLC detection of adenine released from AMP [5]: Asp177Ala substitution resulted in an almost complete loss of the activity

stoichiometry N [6]: 6
stoichiometry N [7]: 6
stoichiometry N [8]: 6
Compound: Cg1261 (CgLOGII), full-length, from Corynebacterium glutamicum ATCC 13032 (enzyme)

stoichiometry N [9]: 6
stoichiometry N [10]: 6
Compound: Cg1261 DNR-truncated (Cg1261ΔDNR) (domain or fragment)

stoichiometry N [11]: 2
Compound: CgLOG (Cg2612) from Corynebacterium glutamicum (enzyme)
